In US11058700B2, “Macrocyclic lactones and uses thereof as modulators of purinergic receptors” (City of Hope, priority 2015, dated 2021):

Legend:
[1] = tested on: MDA-MB-231 breast cancer cells; assay: Viability of breast cancer cells compared to normal fibroblasts; type: cell-based; settings: MDA-MB-231 vs normal non-transformed human foreskin fibroblasts (HFFs)
Protocol: (§1) FIGS. 1A-1H. Ivermectin kills breast cancer cells through a mixed apoptotic and necrotic mechanism. FIG. 1A: Mouse (4T1.2) and human (MDA-MB-231) TNBC cells manifest similar sensitivity to Ivermectin. Viability of cells treated with various doses of Ivermectin for 24 h. FIG. 1B: Extended exposure time reduces IC50 values to as low as 2 μM. 4T1.2 cells were seeded at 100 cells/well and individual colonies were counted after a week. Cancer cells were exposed to Ivermectin during the initial 24 h or during the entire duration of the assay. FIG. 1C: MDA-MB-231 breast cancer cells manifest higher sensitivity to Ivermectin compared to normal non-transformed human foreskin fibroblasts (HFFs). FIG. 1D: Flow cytometry analysis showing that cell death proceeds through two distinct pathways: a directly necrotic 7AAD-single positive or Annexin V/PS-single positive apoptotic pathway. FIG. 1E: Kinetics of necrotic versus apoptotic killing of 4T1.2 breast cancer cells. FIG. 1F: Ivermectin-induced cell death can be reversed by inhibition of various controlled cell death pathways. […]
(§2) Cell viability. […] Following treatment the plates were washed once with PBS and cell viability was measured using the acid phosphatase assay. […] Absorption at 405 nm was measured within 10 min using a multi-well plate reader. Mode of cell death and viability of cells in suspension was evaluated using flow cytometry. […]

[2] = tested on: Caspase-1, Caspase-3 and PARP in 4T1.2 and MDA-MB-231 cells; assay: Caspase activation and PARP cleavage; type: cell-based, mouse, human; settings: 32 μM, 4 h
Protocol: as §1, with “pathways. 4T1.2 cells were treated for 4 h with 32 μM Ivermectin in the presence of μM concentrations of Z-vad-fmk, Necrostatin-1, Digoxin, or VX-765, as indicated.” for “pathways.”
Caspase activation and PARP cleavage. […] PARP cleavage was analyzed after fixing the cells (eBioscience, Cat #00-5123 and Cat #00-5223) for 30 min at RT. […]

[3] = tested on: 4T1.2 breast cancer cells; assay: Plasma membrane polarization; type: cell-based; settings: mouse 4T1.2 cells
Protocol: Plasma membrane polarization. Cancer cells in suspension were treated with various doses of Ivermectin in the presence of 0.5 μM DiBAC4 (3) (Sigma D8189). Treatments were performed in serum free RPMI medium and cells were analyzed by flow cytometry after 1h of incubation. De-/hyper-polarization results in increased/decreased fluorescence in the GFP channel, respectively.

[4] = tested on: 4T1.2 breast cancer cells; assay: Cytosolic Cl- influx; type: cell-based; settings: mouse 4T1.2 cells
Protocol: Cytosolic Cl^− influx. Cancer cells in suspension were treated with various doses of Ivermectin in R10 medium for 1h at 37° C. and 5% CO2. Cells were then washed with PBS and loaded with 10 μM SPQ probe (Life Technologies, M440) in a hypotonic buffer containing 50% PBS and 50% double distilled water. Following brief 15 min incubation at room temperature in the dark cells were washed once with PBS and immediately analyzed by flow cytometry measuring fluorescence in the AF350 channel.

[5] = tested on: murine and human TNBC cells; assay: Reactive oxygen species; type: cell-based, mouse
Protocol: Reactive oxygen and nitrogen species. Cancer cells in suspension were washed with PBS and loaded with 50 μM H2DCFDA (Molecular Probes, Life Technologies, D399) or 5 μM DAF-2 (Cayman Chemical, Catalog #85165) for 30 min at room temperature in the dark. Cells were washed twice with PBS and treated with various doses of Ivermectin in R10 medium. Cells were incubated for 1h in 5 ml FACS tubes at 37° C. and 5% CO2, and immediately analyzed by flow cytometry. Generation of intracellular ROS and NO results in corresponding increases in the GFP fluorescence of the H2DCFDA and DAF-2 probes, respectively.

[6] = tested on: breast (MCF7), prostate (DU-145), head and neck (A253), and ovarian (SKOV3) cancer cells; assay: Killing of resistant human cancer cell lines by Ivermectin and ATP; type: cell-based; settings: Ivermectin 16 μM, exogenous ATP 3 mM
Protocol: FIGS. 5A-5E. CaMKII-independent P2X7-mediated killing. FIG. 5A: qPCR showing the extent of gene knockdown in 4T1.2 cells transfected with shRNA targeting the P2X7 receptor versus non-targeting (NT) control (left panel). […] One million wt, shRNA(NT) and shRNA(P2X7) 4T1.2 cells were plated and incubated for 48 h before evaluation of cell numbers and viability. FIG. 5B: P2X7 knockdown cells are more resistant to ATP and the ATP/IVM combo. 4T1.2 cells were treated for 24 h with 1-3 mM ATP, 6-10 μM Ivermectin, or combinations of ATP and Ivermectin. P2X7 knockdown suppresses the synergy between Ivermectin and high dose ATP, as shown by calculation of combination index (CI) values, see Table 2. FIG. 5C: P2X7 knockdown cells are resistant to ATP/Ivermectin induced membrane permeabilization (Asterisk (*) indicates p<0.05). […] FIG. 5E: Comparison of the protective effects of P2X7, CaMKII, and NADPH oxidases inhibition in short-term (4 h, 32 μM IVM) and long-term (24 h, 12 μM IVM) exposure of 4T1.2 cells to Ivermectin. Asterisk (*) indicates p<0.05 relative to Ivermectin alone controls.
as §2

Compound: CC[C@H](C)[C@H]1O[C@]2(CC[C@@H]1C)C[C@@H]1C[C@@H](C/C=C(\C)[C@@H](O[C@H]3C[C@H](OC)[C@@H](O[C@H]4C[C@H](OC)[C@@H](O)[C@H](C)O4)[C@H](C)O3)[C@@H](C)/C=C/C=C3\CO[C@@H]4[C@H](O)C(C)=C[C@@H](C(=O)O1)[C@]34O)O2 [Ivermectin]
- sensitivity of breast cancer cells versus normal cells [1]: higher sensitivity than normal cells
- PARP cleavage [2]: rapid cleavage of PARP
- caspase activation [2]: potent caspase-1 and caspase-3 activation
- plasma membrane polarization [3]: plasma membrane hyper-polarization
- cytosolic Cl- influx [4]: Cl^− influx
- generation of ROS [5]: induces generation of ROS
- killing by combination of Ivermectin and ATP [6]: synergistically kill
